Test results from PubChem BioAssay AID2060509 (Molecular Pharmacology Branch, DTP, NCI, 2025).
“And” between values parts separate entries of the source, which are not always exact repeats. Equal entries are not always repeated.

System: 485176-168-R4-J1-PDC spheroids with HUVEC/MSC, viability
Experiment: Anticancer human tumor 485176-168-R4-J1-PDC patient-derived pancreatic adenocarcinoma cell line growth inhibition [GQUAD]
Conditions: for viability, T/C: stronger effect = lower value; active means viability on the fitted dose curve at most 10% of control; inactive means the rest
Excerpt: DNA G-quadruplex Stabilizer Agents in Combinations in Complex Spheroids
A high-throughput screen of multi-cell type tumor spheroids was designed to identify active combinations of DNA G-quadruplex stabilizer agents and targeted small molecules. Complex spheroids include a stromal component modeled by human endothelial cells (HUVEC) and fibroblasts modeled by human mesenchymal stem cells (MSCs). The concentration ranges selected for each drug and investigational agent were based upon clinically achievable concentrations if the clinical Cmax of the agent was known.
Compounds. The drugs and investigational agents: pidnarulex (CX-5461; NSC782164), APTO-253 (NSC789042), BRACO-19 (NSC847499), peposertib (NSC802822), ceralasertib (NSC780249), elimusertib (NSC800525), camonsertib (NSC841442), AZD-1390 (NSC803789), olaparib (NSC753686), talazoparib (NSC767125), ART-558 (NSC835418), sotorasib (NSC818433), MRTX-1133 (NSC836407), SN-38 (NSC673596), topotecan (NSC609699), etoposide (NSC141540), doxorubicin (NSC123127), gemcitabine (NSC613327), 5-fluorouracil (NSC19893), paclitaxel (NSC125973), vemurafenib (NSC761431), panobinostat (NSC761190), R-306465 (JNJ-16241199; NSC773264), adavosertib (NSC754352), TP-3654 (NSC805149), carboplatin (NSC241240), KSQ-4279 (NSC840948), and staurosporine (NSC755774) were obtained from the National Cancer Institute (NCI) Developmental Therapeutics Program Chemical Repository (34). The FDA-approved anticancer drug set is available from the NCI Developmental Therapeutics Program. […] The stock solutions were prepared in dimethyl sulfoxide (DMSO, Sigma-Aldrich, St. Louis, MO, cat. D2650) at 800-fold the tested concentration and stored at -70 degrees C prior to their use. All drugs and investigational agents were tested over a range starting from a high concentration at or near the clinical Cmax and decreasing in half-log increments. If the clinical Cmax for an agent had not been determined, the highest concentration tested was 10 microM.
2.3 Cell Culture. All cells were maintained in an incubator at 37 degrees C and 5% CO2 with 95% humidity. The PDC lines were cultured according to standard operating procedures established by the NCI PDMR. All PDCs were thawed and cultured in Matrigel-coated flasks prepared with a working solution of 1X Ham's F-12 nutrient mix, without supplementation (Invitrogen, cat. 11765054), 100 U/mL penicillin-streptomycin (Invitrogen, cat. 15140122), and 2.5% Matrigel (Corning Inc., cat. 354248) for the first three passages. The 857933-349-R-J2-PDC line was cultured in 6C/Colon 1B media, which includes advanced DMEM/F-12 (Thermo Fisher Scientific, cat. 12634028), 10 mM HEPES (Thermo Fisher Scientific, cat. 15630080), 1X GlutaMAX supplement (Thermo Fisher Scientific, cat. 35050061), 0.1 mg/mL primocin (InvivoGen, cat. ant-pm-2), 10% defined fetal bovine serum, heat inactivated (HyClone Laboratories Inc., cat. SH30070.03HI), 50% L-WRN conditioned media (ATCC, cat. CRL-3276), 1.25 mM N-Acetyl-L-cysteine (Sigma-Aldrich, cat. A9165), 10 mM nicotinamide (Sigma-Aldrich, cat. N0636), 1X B-27 supplement (Thermo Fisher Scientific, cat. 17504044), 1X N-2 supplement (Thermo Fisher Scientific, cat. 17502048), 10 microM Y-27632 dihydrochloride (Tocris Bioscience, cat. 1254), and 50 ng/mL human EGF recombinant protein (Thermo Fisher Scientific, cat. PHG0311). The 485176-168-R4-J1-PDC line was cultured in Panc media, which includes all 6C/Colon 1B media components plus 100 ng/mL human FGF-10 (Thermo Fisher Scientific, cat. 100-26), 500 nM SB-431542 (Selleckchem, cat. S1067), and gastrin (Tocris, cat. 3006).
[…]

[1] = curve of first compound, second compound 0.0316 µM
[2] = curve of first compound, second compound 0.1 µM
[3] = curve of first compound, second compound 0.316 µM
[4] = curve of first compound, second compound 1 µM
[5] = curve of first compound, second compound 3.16 µM
[6] = curve of first compound, second compound 10 µM
[7] = second compound 0.0316 µM, first compound 0.0316 µM
[8] = second compound 0.0316 µM, first compound 0.316 µM
[9] = second compound 0.1 µM, first compound 0.0316 µM
[10] = second compound 0.1 µM, first compound 0.316 µM
[11] = second compound 0.316 µM, first compound 0.0316 µM
[12] = second compound 0.316 µM, first compound 0.316 µM
[13] = second compound 1 µM, first compound 0.0316 µM
[14] = second compound 1 µM, first compound 0.316 µM
[15] = second compound 3.16 µM, first compound 0.0316 µM
[16] = second compound 3.16 µM, first compound 0.316 µM
[17] = second compound 10 µM, first compound 0.0316 µM
[18] = second compound 10 µM, first compound 0.316 µM
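Further: spheroids exposed to compounds for seven days before readout.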
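Wherever viability, T/C is given: percent viability relative to DMSO vehicle control wells as 100%.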

Cn1ncnc1[C@H]1c2n[nH]c(=O)c3cc(F)cc(c23)N[C@@H]1c1ccc(F)cc1 + CN(C)c1ccc(Nc2c3ccc(NC(=O)CCN4CCCC4)cc3nc3cc(NC(=O)CCN4CCCC4)ccc23)cc1
inactive: viability, T/C (second compound 0.0316 µM, first compound 0.000999 µM) 92.1% | viability, T/C (second compound 0.0316 µM, first compound 0.00316 µM) 91.2% | viability, T/C (second compound 0.0316 µM, first compound 0.00999 µM) 101% | viability, T/C [7] 98% | viability, T/C (second compound 0.0316 µM, first compound 0.0999 µM) 98.9% | viability, T/C [8] 92% | viability, T/C (second compound 0.1 µM, first compound 0.000999 µM) 102% | viability, T/C (second compound 0.1 µM, first compound 0.00316 µM) 124% | viability, T/C (second compound 0.1 µM, first compound 0.00999 µM) 107% | viability, T/C [9] 93.3% | viability, T/C (second compound 0.1 µM, first compound 0.0999 µM) 110% | viability, T/C [10] 90.8% | viability, T/C (second compound 0.316 µM, first compound 0.000999 µM) 101% | viability, T/C (second compound 0.316 µM, first compound 0.00316 µM) 97.5% | viability, T/C (second compound 0.316 µM, first compound 0.00999 µM) 95.3% | viability, T/C [11] 104% | viability, T/C (second compound 0.316 µM, first compound 0.0999 µM) 106% | viability, T/C [12] 96.5% | viability, T/C (second compound 1 µM, first compound 0.000999 µM) 108% | viability, T/C (second compound 1 µM, first compound 0.00316 µM) 91.7% | viability, T/C (second compound 1 µM, first compound 0.00999 µM) 114% | viability, T/C [13] 104% | viability, T/C (second compound 1 µM, first compound 0.0999 µM) 113% | viability, T/C [14] 93.2% | viability, T/C (second compound 3.16 µM, first compound 0.000999 µM) 107% | viability, T/C (second compound 3.16 µM, first compound 0.00316 µM) 80.9% | viability, T/C (second compound 3.16 µM, first compound 0.00999 µM) 98.6% | viability, T/C [15] 95.7% | viability, T/C (second compound 3.16 µM, first compound 0.0999 µM) 89.3% | viability, T/C [16] 86.8% | viability, T/C (second compound 10 µM, first compound 0.000999 µM) 90.1% | viability, T/C (second compound 10 µM, first compound 0.00316 µM) 81.4% | viability, T/C (second compound 10 µM, first compound 0.00999 µM) 79.6% | viability, T/C [17] 97.7% | viability, T/C (second compound 10 µM, first compound 0.0999 µM) 99.5% | viability, T/C [18] 78.8%
> 316 nM: IC50 [1] | IC50 [2] | IC50 [3] | IC50 [4] | IC50 [5] | IC50 [6]

C#Cc1c(F)ccc2cc(O)cc(-c3ncc4c(N5CC6CCC(C5)N6)nc(OCC56CCCN5CC(F)C6)nc4c3F)c12 (centres undefined)
> 10000 nM: IC50 (curve of compound)
inactive: viability, T/C (compound 0.0316 µM) 95.2% and 109% and 105% | viability, T/C (compound 0.1 µM) 89% and 86.3% and 108% | viability, T/C (compound 0.316 µM) 92.7% and 88.4% and 95.7% | viability, T/C (compound 1 µM) 89.8% and 104% and 109% | viability, T/C (compound 3.16 µM) 104% and 96.4% and 97.2% | viability, T/C (compound 10 µM) 95.4% and 93.5% and 104%

COc1ncnc(C2CC2)c1-c1ncc2cnn(Cc3ccc(-c4nc(C(F)(F)F)cn4C(C)C)cc3)c2n1 + Cc1[nH]c2ccc(F)cc2c1-c1nc2c3cccnc3c3ncccc3c2[nH]1
inactive: viability, T/C [7] 118% | viability, T/C (second compound 0.0316 µM, first compound 0.1 µM) 81.8% | viability, T/C [8] 101% | viability, T/C (second compound 0.0316 µM, first compound 1 µM) 105% | viability, T/C (second compound 0.0316 µM, first compound 3.16 µM) 104% | viability, T/C (second compound 0.0316 µM, first compound 10 µM) 94.2% | viability, T/C [9] 101% | viability, T/C (second compound 0.1 µM, first compound 0.1 µM) 106% | viability, T/C [10] 102% | viability, T/C (second compound 0.1 µM, first compound 1 µM) 102% | viability, T/C (second compound 0.1 µM, first compound 3.16 µM) 102% | viability, T/C (second compound 0.1 µM, first compound 10 µM) 110% | viability, T/C [11] 91% | viability, T/C (second compound 0.316 µM, first compound 0.1 µM) 85.4% | viability, T/C [12] 107% | viability, T/C (second compound 0.316 µM, first compound 1 µM) 92.4% | viability, T/C (second compound 0.316 µM, first compound 3.16 µM) 110% | viability, T/C (second compound 0.316 µM, first compound 10 µM) 110% | viability, T/C [13] 84.9% | viability, T/C (second compound 1 µM, first compound 0.1 µM) 106% | viability, T/C [14] 118% | viability, T/C (second compound 1 µM, first compound 1 µM) 108% | viability, T/C (second compound 1 µM, first compound 3.16 µM) 115% | viability, T/C (second compound 1 µM, first compound 10 µM) 97% | viability, T/C [15] 88.4% | viability, T/C (second compound 3.16 µM, first compound 0.1 µM) 90.7% | viability, T/C [16] 104% | viability, T/C (second compound 3.16 µM, first compound 1 µM) 93.8% | viability, T/C (second compound 3.16 µM, first compound 3.16 µM) 93% | viability, T/C (second compound 3.16 µM, first compound 10 µM) 80.5% | viability, T/C [17] 90.3% | viability, T/C (second compound 10 µM, first compound 0.1 µM) 97% | viability, T/C [18] 83.5% | viability, T/C (second compound 10 µM, first compound 1 µM) 90.9% | viability, T/C (second compound 10 µM, first compound 3.16 µM) 96.9% | viability, T/C (second compound 10 µM, first compound 10 µM) 84.6%
> 10000 nM: IC50 [1] | IC50 [2] | IC50 [3] | IC50 [4] | IC50 [5] | IC50 [6]

CCCS(=O)(=O)Nc1ccc(F)c(C(=O)c2c[nH]c3ncc(-c4ccc(Cl)cc4)cc23)c1F
> 10000 nM: IC50 (curve of compound)
inactive: viability, T/C (compound 0.0316 µM) 84.4% and 98.5% and 96.2% | viability, T/C (compound 0.1 µM) 94.7% and 85.4% and 64.8% | viability, T/C (compound 0.316 µM) 89.7% and 87.6% and 85% | viability, T/C (compound 1 µM) 82% and 83.2% and 77% | viability, T/C (compound 3.16 µM) 82.2% and 75.4% and 73.2% | viability, T/C (compound 10 µM) 71.2% and 70.3% and 66.2%

COc1ncnc(C2CC2)c1-c1ncc2cnn(Cc3ccc(-c4nc(C(F)(F)F)cn4C(C)C)cc3)c2n1
inactive: viability, T/C (compound 0.0316 µM) 95.3% and 93.3% and 91.2% | viability, T/C (compound 0.1 µM) 96.5% and 107% and 90.4% | viability, T/C (compound 0.316 µM) 104% and 96.2% and 105% | viability, T/C (compound 1 µM) 84.1% and 92.2% and 106% | viability, T/C (compound 3.16 µM) 102% and 107% and 93.4% | viability, T/C (compound 10 µM) 103% and 106% and 98.5%
> 10000 nM: IC50 (curve of compound)

CC1COCCN1c1cc(C2(O)CC3CCC(C2)O3)c2cnn(-c3ccn[nH]3)c2n1 (centres undefined)
8.14% and 9.02% and 10.2%: viability, T/C (compound 1 µM)
inactive: viability, T/C (compound 0.0316 µM) 68% and 73.8% and 81.9% | viability, T/C (compound 0.1 µM) 32.8% and 40.7% and 53.4% | viability, T/C (compound 0.316 µM) 11.7% and 19.7% and 16.1%
active: viability, T/C (compound 3.16 µM) 8.91% and 11.7% and 10.2% | viability, T/C (compound 10 µM) 9.41% and 8.55% and 9.34%
57 nM and 72.7 nM and 111 nM: IC50 (curve of compound)

COc1cc(C2c3cc4c(cc3C(OC3OC5COC(C)OC5C(O)C3O)C3COC(=O)C23)OCO4)cc(OC)c1O (centres undefined)
inactive: viability, T/C (compound 0.0316 µM) 102% and 101% and 95% | viability, T/C (compound 0.1 µM) 80.2% and 68.8% and 67.7% | viability, T/C (compound 0.316 µM) 46.6% and 39.1% and 39.6% | viability, T/C (compound 1 µM) 39.9% and 38.8% and 40.8% | viability, T/C (compound 3.16 µM) 25.9% and 24.6% and 23.1% | viability, T/C (compound 10 µM) 13.2% and 13.4% and 11%
406 nM and 255 nM and 269 nM: IC50 (curve of compound)
